Common to all, as to assay: SelectScreen kinase specificity survey
What all share (assay type): biochemical

One test deals with T1, ABL1 (Homo sapiens, UniProt P00519).
T1 construct: purchased Invitrogen (SelectScreen platform)
As to conditions: estimated, abridged dose response curve, read-out: Kinase inhibitory activity EC50. In outline: (§1)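 Each kinase was run with its own substrate and optical reporter at 100 micromolar ATP. Inhibitor was added in 5 graded increments, and EC50 was estimated by fitting the abridged dose-response curve to a 4-parameter Hill equation. The survey covered a 230-kinase panel.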

For a further test, the target named is T2, BRSK1 (SAD1) (Homo sapiens, UniProt Q8TDC3).
T2 construct: purchased Invitrogen, Inc. (SelectScreen platform)
In a few lines:
as §1

A further test concerns the target T3, CAMK2A (CaMKII alpha) (Homo sapiens, UniProt Q9UQM7).
T3 construct: purchased Invitrogen, Inc. (SelectScreen platform)
As to conditions: estimated, abridged dose response curve, read-out: Kinase inhibitory activity EC50. In a few lines:
as §1

Another test addresses T4, CDC42 BPA (MRCKA) (Homo sapiens, UniProt Q5VT25).
T4 construct: purchased Invitrogen (SelectScreen platform)
As to conditions: estimated, abridged dose response curve, read-out: Kinase inhibitory activity EC50. In outline: as §1

The target of the next test is T5, CSNK1G3 (CK1 gamma 3) (Homo sapiens, UniProt Q9Y6M4).
T5 construct: purchased Invitrogen (SelectScreen platform)
As to conditions: estimated, abridged dose response curve, read-out: Kinase inhibitory activity EC50. In outline: as §1

A further test has as its target T6, DYRK1B (Homo sapiens, UniProt Q9Y463).
T6 construct: purchased Invitrogen (SelectScreen platform)
As to conditions: estimated, abridged dose response curve, read-out: Kinase inhibitory activity EC50. In outline: as §1

The target of another test is T7, EPHA3 (Homo sapiens, UniProt P29320).
T7 construct: purchased Invitrogen (SelectScreen service)
As to conditions: estimated, abridged dose response curve, read-out: Kinase inhibitory activity EC50. In a few lines:
as §1

Another test addresses T8, EPHB1 (Homo sapiens, UniProt P54762).
T8 construct: purchased Invitrogen (SelectScreen service)
In outline: as §1

The target in the next test is T9, EPHB3 (Homo sapiens, UniProt P54753).
T9 construct: purchased Invitrogen (SelectScreen service)
As to conditions: estimated, abridged dose response curve, read-out: Kinase inhibitory activity EC50. In outline:
as §1

The next test has as its target T10, FRAP1 (mTOR) (Homo sapiens, UniProt P42345).
T10 construct: purchased Invitrogen, Inc. (SelectScreen platform)
As to conditions: estimated, abridged dose response curve, read-out: Kinase inhibitory activity EC50. In outline: as §1

Another test addresses T11, HIPK1 (Myak) (Homo sapiens, UniProt Q86Z02).
T11 construct: purchased Invitrogen (SelectScreen platform)
As to conditions: estimated, abridged dose response curve, read-out: Kinase inhibitory activity EC50. In a few lines: as §1

The target of a further test is T12, INSRR (IRR) (Homo sapiens, UniProt P14616).
T12 construct: purchased Invitrogen (SelectScreen platform)
As to conditions: estimated, abridged dose response curve, read-out: Kinase inhibitory activity EC50. In outline: as §1

The next test addresses T13, KIT (Homo sapiens, UniProt P10721).
T13 construct: purchased Invitrogen (SelectScreen platform)
As to conditions: estimated, abridged dose response curve, read-out: Kinase inhibitory activity EC50. In a few lines:
as §1

A further test addresses T14, MAPK11 (p38 beta) (Homo sapiens, UniProt Q15759).
T14 construct: purchased Invitrogen (SelectScreen platform)
As to conditions: estimated, abridged dose response curve, read-out: Kinase inhibitory activity EC50. In outline: as §1

The target in the next test is T15, MAPK13 (p38 delta) (Homo sapiens, UniProt O15264).
T15 construct: purchased Invitrogen, Inc. (SelectScreen service)
As to conditions: estimated, abridged dose response curve, read-out: Kinase inhibitory activity EC50. In a few lines:
as §1

A further test has as its target T16, PLK1 (Homo sapiens, UniProt P53350).
T16 construct: purchased Invitrogen, Inc. (SelectScreen service)
As to conditions: estimated, abridged dose response curve, read-out: Kinase inhibitory activity EC50. In outline: as §1

The next test has as its target T17, PRKCB2 (PKC beta II) (Homo sapiens, UniProt P05771).
T17 construct: purchased Invitrogen (SelectScreen platform)
As to conditions: estimated, abridged dose response curve, read-out: Kinase inhibitory activity EC50. In a few lines: as §1

The next test addresses T18, RPS6KA2 (RSK3) (Homo sapiens, UniProt Q15349).
T18 construct: purchased Invitrogen, Inc. (SelectScreen platform)
As to conditions: estimated, abridged dose response curve, read-out: Kinase inhibitory activity EC50. In a few lines:
as §1

Here are results for two molecules from patent publication US20100292231A1, “Indazole Compounds for Treating Inflammatory Disorders, Demyelinating Disorders and Cancers” (priority 2007, published 2010).

Each structure is given as a SMILES string. Where two headings read alike, the source gives them in different places.

T9 sequence (P54753 34-998): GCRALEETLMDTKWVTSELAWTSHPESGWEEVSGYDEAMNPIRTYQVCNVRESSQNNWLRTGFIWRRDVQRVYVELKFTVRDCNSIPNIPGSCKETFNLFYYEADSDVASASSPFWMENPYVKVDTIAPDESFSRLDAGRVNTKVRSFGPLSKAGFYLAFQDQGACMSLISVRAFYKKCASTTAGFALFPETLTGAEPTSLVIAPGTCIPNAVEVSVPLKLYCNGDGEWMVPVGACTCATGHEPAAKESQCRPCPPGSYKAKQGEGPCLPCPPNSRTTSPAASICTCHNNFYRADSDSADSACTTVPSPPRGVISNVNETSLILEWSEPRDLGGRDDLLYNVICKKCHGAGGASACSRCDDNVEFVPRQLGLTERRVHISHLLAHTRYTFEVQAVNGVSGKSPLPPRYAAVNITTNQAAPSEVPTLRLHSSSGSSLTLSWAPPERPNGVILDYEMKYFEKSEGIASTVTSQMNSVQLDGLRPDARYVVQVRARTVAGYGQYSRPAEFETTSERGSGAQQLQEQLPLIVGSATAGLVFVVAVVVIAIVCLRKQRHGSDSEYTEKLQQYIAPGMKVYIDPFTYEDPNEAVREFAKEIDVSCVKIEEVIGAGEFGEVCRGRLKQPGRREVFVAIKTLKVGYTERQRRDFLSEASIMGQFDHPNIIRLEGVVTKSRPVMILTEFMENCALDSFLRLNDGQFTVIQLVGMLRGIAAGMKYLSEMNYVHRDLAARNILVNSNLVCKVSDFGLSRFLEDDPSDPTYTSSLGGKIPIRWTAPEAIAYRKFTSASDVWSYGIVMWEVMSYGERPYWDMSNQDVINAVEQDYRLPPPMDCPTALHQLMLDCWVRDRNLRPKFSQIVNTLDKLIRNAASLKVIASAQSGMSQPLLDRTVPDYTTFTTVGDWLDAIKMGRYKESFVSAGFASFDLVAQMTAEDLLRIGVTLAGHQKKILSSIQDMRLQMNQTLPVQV
T4 sequence (Q5VT25 whole entry): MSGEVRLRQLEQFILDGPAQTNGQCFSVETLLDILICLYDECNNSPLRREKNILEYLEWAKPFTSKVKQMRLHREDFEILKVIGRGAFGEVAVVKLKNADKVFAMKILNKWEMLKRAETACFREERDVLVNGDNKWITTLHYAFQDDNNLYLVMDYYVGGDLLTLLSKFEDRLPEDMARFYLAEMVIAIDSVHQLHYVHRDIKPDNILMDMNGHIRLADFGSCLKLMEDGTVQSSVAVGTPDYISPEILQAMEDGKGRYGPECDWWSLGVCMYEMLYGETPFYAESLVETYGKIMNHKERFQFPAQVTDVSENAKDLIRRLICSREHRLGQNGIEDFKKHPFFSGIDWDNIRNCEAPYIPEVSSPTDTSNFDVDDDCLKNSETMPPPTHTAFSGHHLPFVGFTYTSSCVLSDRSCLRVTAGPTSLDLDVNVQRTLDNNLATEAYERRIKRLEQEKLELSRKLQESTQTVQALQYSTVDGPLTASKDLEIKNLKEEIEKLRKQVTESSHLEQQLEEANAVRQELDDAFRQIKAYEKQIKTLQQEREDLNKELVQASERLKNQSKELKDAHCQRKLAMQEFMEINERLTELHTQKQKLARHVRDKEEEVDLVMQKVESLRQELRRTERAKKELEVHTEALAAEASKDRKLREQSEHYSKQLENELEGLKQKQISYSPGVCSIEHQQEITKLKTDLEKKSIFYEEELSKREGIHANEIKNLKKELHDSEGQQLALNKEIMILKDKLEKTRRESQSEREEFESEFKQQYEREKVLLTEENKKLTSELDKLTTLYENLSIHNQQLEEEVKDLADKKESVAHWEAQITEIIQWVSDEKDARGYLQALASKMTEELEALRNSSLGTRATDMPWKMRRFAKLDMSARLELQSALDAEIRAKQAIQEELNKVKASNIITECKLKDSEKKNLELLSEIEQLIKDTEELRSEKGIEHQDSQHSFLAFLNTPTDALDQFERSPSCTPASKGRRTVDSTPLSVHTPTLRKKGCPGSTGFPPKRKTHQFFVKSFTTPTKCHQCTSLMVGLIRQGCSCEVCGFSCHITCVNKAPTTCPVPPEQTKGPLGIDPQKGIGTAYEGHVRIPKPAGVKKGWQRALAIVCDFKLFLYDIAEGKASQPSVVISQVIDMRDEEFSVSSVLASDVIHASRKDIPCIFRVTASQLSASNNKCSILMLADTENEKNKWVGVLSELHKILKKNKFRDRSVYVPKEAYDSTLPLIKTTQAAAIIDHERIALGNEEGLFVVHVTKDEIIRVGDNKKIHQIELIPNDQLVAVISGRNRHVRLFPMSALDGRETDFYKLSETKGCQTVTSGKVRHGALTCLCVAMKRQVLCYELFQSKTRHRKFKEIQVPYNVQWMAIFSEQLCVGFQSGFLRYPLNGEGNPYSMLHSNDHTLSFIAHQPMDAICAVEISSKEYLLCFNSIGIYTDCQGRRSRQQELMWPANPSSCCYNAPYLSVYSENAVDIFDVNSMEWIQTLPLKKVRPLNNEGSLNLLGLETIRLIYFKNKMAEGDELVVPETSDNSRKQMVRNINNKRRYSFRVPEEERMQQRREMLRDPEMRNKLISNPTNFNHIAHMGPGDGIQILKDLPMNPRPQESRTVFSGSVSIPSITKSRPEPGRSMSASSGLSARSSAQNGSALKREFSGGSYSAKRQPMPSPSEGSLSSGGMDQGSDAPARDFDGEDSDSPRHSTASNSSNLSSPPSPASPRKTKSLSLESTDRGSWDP
T7 sequence (P29320 21-983): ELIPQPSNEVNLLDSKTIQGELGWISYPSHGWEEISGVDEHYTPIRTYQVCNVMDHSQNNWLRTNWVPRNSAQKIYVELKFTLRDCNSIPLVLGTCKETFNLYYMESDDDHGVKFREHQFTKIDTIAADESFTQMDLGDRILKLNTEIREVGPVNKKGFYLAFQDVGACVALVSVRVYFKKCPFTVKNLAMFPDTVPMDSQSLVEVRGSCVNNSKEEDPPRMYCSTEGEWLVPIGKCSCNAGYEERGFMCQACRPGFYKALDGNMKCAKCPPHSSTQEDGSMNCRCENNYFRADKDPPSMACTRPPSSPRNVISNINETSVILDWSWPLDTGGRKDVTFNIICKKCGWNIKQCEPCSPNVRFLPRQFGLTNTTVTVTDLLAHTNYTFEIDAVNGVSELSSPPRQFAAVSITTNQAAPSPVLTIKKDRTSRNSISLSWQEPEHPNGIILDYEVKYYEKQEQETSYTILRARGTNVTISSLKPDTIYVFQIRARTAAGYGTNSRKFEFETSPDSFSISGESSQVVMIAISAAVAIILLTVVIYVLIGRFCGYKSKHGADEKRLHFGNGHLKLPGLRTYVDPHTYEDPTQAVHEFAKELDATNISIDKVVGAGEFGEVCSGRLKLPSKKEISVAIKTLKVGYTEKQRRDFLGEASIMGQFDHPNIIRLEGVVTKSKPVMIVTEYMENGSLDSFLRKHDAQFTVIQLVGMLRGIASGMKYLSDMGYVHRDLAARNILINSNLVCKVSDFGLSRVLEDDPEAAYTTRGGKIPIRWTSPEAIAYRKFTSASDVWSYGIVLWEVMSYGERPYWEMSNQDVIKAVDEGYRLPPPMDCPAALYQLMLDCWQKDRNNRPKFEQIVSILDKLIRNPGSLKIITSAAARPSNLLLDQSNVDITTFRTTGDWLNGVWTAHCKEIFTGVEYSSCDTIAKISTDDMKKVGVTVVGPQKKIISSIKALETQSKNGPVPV
T12 sequence (P14616 27-1297): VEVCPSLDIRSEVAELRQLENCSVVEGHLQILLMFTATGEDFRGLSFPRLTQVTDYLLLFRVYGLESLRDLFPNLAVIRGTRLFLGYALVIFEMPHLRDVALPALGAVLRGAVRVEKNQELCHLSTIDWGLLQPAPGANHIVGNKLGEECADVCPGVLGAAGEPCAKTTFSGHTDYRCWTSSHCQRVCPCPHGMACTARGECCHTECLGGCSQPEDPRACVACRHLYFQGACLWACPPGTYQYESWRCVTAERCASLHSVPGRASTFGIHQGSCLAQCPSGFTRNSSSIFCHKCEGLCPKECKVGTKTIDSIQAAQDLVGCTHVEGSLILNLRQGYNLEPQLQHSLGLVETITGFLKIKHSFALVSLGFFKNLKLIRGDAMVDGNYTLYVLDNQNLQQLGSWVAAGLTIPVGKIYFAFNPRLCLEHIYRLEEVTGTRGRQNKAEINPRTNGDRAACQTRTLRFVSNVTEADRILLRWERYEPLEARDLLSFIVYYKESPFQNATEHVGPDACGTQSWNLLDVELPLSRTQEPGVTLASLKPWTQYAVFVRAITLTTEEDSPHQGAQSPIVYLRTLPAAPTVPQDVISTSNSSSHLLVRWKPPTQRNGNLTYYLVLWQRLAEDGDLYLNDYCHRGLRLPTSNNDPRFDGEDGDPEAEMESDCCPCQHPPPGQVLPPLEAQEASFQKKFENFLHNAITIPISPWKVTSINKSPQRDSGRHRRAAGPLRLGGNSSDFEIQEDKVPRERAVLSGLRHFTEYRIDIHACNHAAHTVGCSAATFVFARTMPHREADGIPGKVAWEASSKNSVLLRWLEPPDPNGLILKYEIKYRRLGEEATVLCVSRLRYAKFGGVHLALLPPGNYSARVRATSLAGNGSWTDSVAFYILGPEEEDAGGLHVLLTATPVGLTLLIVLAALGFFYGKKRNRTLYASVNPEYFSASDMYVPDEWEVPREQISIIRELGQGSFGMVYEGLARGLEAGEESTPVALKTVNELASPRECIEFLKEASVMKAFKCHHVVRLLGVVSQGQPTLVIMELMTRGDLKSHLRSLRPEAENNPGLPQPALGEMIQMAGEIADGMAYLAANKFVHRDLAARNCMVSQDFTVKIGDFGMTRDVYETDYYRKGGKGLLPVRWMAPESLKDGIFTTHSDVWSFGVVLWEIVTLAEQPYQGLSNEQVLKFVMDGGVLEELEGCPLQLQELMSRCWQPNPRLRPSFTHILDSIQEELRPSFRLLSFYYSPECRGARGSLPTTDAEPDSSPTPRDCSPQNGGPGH

As for `CN(C)CCCNc1ccc2ncn3c4ccc5[nH]ncc5c4c(=O)c1c23` [Compound (IV)], the EC50 was 3.78 µM on ABL1; 1.39 µM at BRSK1 (SAD1) (BRSK1 (SAD1), estimated, abridged dose response curve, read-out: Kinase inhibitory activity EC50); 0.789 µM at CAMK2A (CaMKII alpha); more than 5 µM at CDC42 BPA (MRCKA); more than 5 µM at CSNK1G3 (CK1 gamma 3); 0.82 µM at DYRK1B. The concentration giving a half-maximal response (EC50) was more than 5 µM on EPHA3; more than 5 µM at EPHB1 (EPHB1, estimated, abridged dose response curve, read-out: Kinase inhibitory activity EC50); more than 5 µM on EPHB3; more than 5 µM on FRAP1 (mTOR); 1.21 µM on HIPK1 (Myak); 1.15 µM at INSRR (IRR). The EC50 on KIT is 1.1 µM; at MAPK11 (p38 beta), more than 5 µM; at MAPK13 (p38 delta), more than 5 µM; at PLK1, more than 5 µM; at PRKCB2 (PKC beta II), more than 5 µM; on RPS6KA2 (RSK3), 0.84 µM.
Regarding `CCN(CC)CCNc1ccc2ncn3c4ccc(O)cc4c(=O)c1c23` [Symadex, 5-(2-(diethylamino)ethylamino)-8-hydroxy-6H-imidazo[4,5,1-de]acridin-6-one, reference compound], the 50% effective concentration (EC50) was more than 5 µM on ABL1; 1.93 µM on BRSK1 (SAD1); more than 5 µM on CAMK2A (CaMKII alpha); more than 5 µM at CDC42 BPA (MRCKA); more than 5 µM on CSNK1G3 (CK1 gamma 3); 0.991 µM on DYRK1B. Besides, the concentration for a half-maximal effect (EC50) at EPHA3, on EPHB1, on EPHB3, on FRAP1 (mTOR), on HIPK1 (Myak) and at INSRR (IRR) was more than 5 µM each time. Moreover, the EC50 is 2.25 µM on KIT; more than 5 µM on MAPK11 (p38 beta); more than 5 µM on MAPK13 (p38 delta); more than 5 µM on PLK1; more than 5 µM at PRKCB2 (PKC beta II); 0.46 µM at RPS6KA2 (RSK3).
